Measured values: PubChem BioAssay AID1912 (The Scripps Research Institute Molecular Screening Center, 2009)
Active and inactive are the calls of the source. No rule for the calls is given here.

Target: Luciferin 4-monooxygenase (Photinus pyralis) (UniProt P08659)
Test: firefly luciferase inhibitor potency, HSP90 counter-screen, dose response, artefact control for HSP90 inhibitor project, biochemical, luminescence (AID 1912)
Conditions: purified firefly luciferase, luminescence inhibition

Sequence of Luciferin 4-monooxygenase (Photinus pyralis) (P08659 whole entry, looked up): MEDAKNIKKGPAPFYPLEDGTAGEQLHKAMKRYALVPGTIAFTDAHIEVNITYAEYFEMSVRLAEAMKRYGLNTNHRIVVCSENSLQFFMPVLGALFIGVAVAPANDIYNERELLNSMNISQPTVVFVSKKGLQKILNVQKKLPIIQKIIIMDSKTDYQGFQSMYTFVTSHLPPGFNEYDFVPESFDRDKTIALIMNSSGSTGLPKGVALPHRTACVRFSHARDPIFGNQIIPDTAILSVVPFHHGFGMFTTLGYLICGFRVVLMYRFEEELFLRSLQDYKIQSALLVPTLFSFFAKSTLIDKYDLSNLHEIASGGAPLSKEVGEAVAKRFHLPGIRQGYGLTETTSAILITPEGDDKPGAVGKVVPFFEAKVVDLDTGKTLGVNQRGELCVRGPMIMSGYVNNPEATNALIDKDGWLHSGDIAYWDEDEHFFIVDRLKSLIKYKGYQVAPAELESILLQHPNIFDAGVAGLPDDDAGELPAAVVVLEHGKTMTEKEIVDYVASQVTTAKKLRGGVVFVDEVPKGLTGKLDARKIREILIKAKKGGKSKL

SMILES | IC50
COC(=O)C[C@]1(C(=O)OC)CN(C#N)N(c2ccc(Cl)cc2)C12c1ccccc1-c1ccccc12 | > 60 µM (inactive)
Cc1cc(C(=O)Cn2nc(C(=O)O)c3ccccc3c2=O)c(C)n1CC(F)(F)F | > 60 µM (inactive)
C=CCn1c(NS(=O)(=O)c2ccccc2)c(S(=O)(=O)c2ccc(C)cc2)c2nc3ccccc3nc21 | > 60 µM (inactive)
CC(=O)CSc1nnc(-c2ccc3c(c2)OCO3)o1 | inactive
O=C(O)c1ccc(NC2=C/C(=N/S(=O)(=O)c3ccccc3)c3ccccc3C2=O)cc1 | > 60 µM (inactive)
CC1=NN(c2ccccc2)C(=O)/C1=C\N(O)c1ccccc1 | > 60 µM (inactive)
CC(=O)c1ccc(N=Nc2c(C)[nH]n(-c3ccccc3)c2=O)cc1 | > 60 µM (inactive)
O=C(O)c1cc(N/N=C/c2c[nH]c3ccccc23)ccc1Cl | > 60 µM (inactive)
Cc1c(-c2nc(-c3ccc(C(C)(C)C)cc3)no2)n(C)oc1=O | > 60 µM (inactive)
Cc1ccc2oc(=O)c(/C=C(\O)c3cccs3)nc2c1 | > 60 µM (inactive)
Cc1ccc(C(=O)CSc2ccccc2C(=O)O)cc1 | inactive
CCOC(=O)c1csc(NC(=O)c2cc3ccccc3o2)n1 | > 60 µM (inactive)
COC(=O)c1ccccc1NC1=C/C(=N\S(=O)(=O)c2ccc(C(=O)O)cc2)c2ccccc2C1=O | > 60 µM (inactive)
CCC(C)c1ccc(OCc2ccc(C(=O)OC)o2)cc1 (stereo not drawn) | > 60 µM (inactive)
CC(=O)Oc1ccccc1/C=C/c1nc2ccccc2c(=O)o1 | > 60 µM (inactive)
CC(=O)Nc1ccc(NC2=C/C(=N/S(=O)(=O)c3cccs3)c3ccccc3C2=O)cc1 | > 60 µM (inactive)
CCOC(=O)c1csc(COc2ccc(OC)cc2)n1 | > 60 µM (inactive)
CCC(=O)Nc1ccccc1C(=O)OCC(=O)c1ccccc1 | > 60 µM (inactive)
Cc1nc(NC(=O)c2ccc(F)cc2)sc1C(=O)Nc1ccc2c(c1)CCC2 | > 60 µM (inactive)

SMILES | IC50
COc1cc(/C=N/Nc2ccc(Cl)c(C(=O)O)c2)ccc1OC(=O)c1ccc(F)cc1 | > 60 µM (inactive)
Cc1ccc(C(=O)CN2C(=O)c3ccccc3S2(=O)=O)cc1 | > 60 µM (inactive)
CCc1ccc(Nc2n[n+](-c3ccccc3)c(-c3ccc(N(CC)CC)cc3)s2)cc1 | > 60 µM (inactive)
Cc1ccc(OCc2ccc(C(=O)O)o2)cc1C | inactive
COc1cc(/C=N/Nc2ccc(Cl)c(C(=O)O)c2)ccc1OC(=O)c1ccco1 | > 60 µM (inactive)
CCOc1ccc(-c2nc(CN(Cc3ccccc3)C[C@@H]3CCC(=O)N3)c(C)o2)cc1 | > 60 µM (inactive)
Cc1[nH]n(-c2ccccc2)c(=O)c1N=Nc1ccc(C(N)=O)cc1 | > 60 µM (inactive)
Cc1c(-c2nc(-c3ccc(C(F)(F)F)cc3)no2)n(C)oc1=O | > 60 µM (inactive)
Cc1cccc(N(O)C(=O)Nc2cccc(Cl)c2)c1 | > 60 µM (inactive)
O=[N+]([O-])/C=C/c1ccc2c(ccn2Cc2ccccc2)c1 | > 60 µM (inactive)
O=c1oc2ccc(Cl)cc2nc1/C=C(\O)c1cccs1 | > 60 µM (inactive)
CCc1ccc(S(=O)(=O)/N=C2\C=C(Nc3ccc(O)cc3)C(=O)c3ccccc32)cc1 | > 60 µM (inactive)
CC(C)(C)c1ccc(C(=O)c2c[nH]c(C(=O)O)c2)cc1 | inactive
O=C(Cc1ccccc1)N1CCN(S(=O)(=O)c2ccc([N+](=O)[O-])cc2)CC1 | > 60 µM (inactive)
CCc1ccc(S(=O)(=O)/N=C2\C=C(Nc3cccc(C(=O)O)c3)C(=O)c3ccccc32)cc1 | > 60 µM (inactive)
O=C1C(Nc2ccc(O)cc2)=C/C(=N/S(=O)(=O)c2cccs2)c2ccccc21 | inactive
CNC(=S)N/N=C/c1ccc(-c2ccc(C(=O)O)cc2)o1 | > 60 µM (inactive)
O=C1c2cc(F)ccc2-n2c1nc1ccccc1c2=O | > 60 µM (inactive)
Cc1ccc2oc(=O)c(/C=C(\O)c3ccco3)nc2c1 | > 60 µM (inactive)
